The values that follow come from patent US20240124442A1, “TRICYCLIC-AMIDO-BICYCLIC PRMT5 INHIBITORS” (AMGEN INC., priority 2021, published 2024).

The subject of one assay is HCT116 WT cells. Briefly: HCT116 WT (parent) cell line proliferation / cell viability (CellTiter-Glo, 6 days). The conditions noted are these: Homo sapiens, HCT-116, 144 h, 6 days treatment. It is filed as cell-based. The procedure, abridged: (§1)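 WT vs MTAP-null HCT116, 6 d drug, CTG readout. 1:3 × 8–9 pts (top 1/10 μM) or 1:2 × 22 pts (top 10/50 μM). IC50 by 4PL or Hill −1 fit.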
A general note: ATP-based viability assays read luminescence as a measure of living cells.

The test system of a further assay is HCT116 MTAP null cells. Description: HCT116 MTAP null cell line proliferation / cell viability (CellTiter-Glo, 6 days). It is filed as cell-based. The conditions noted are these: 144 h; HCT116 MTAP null cells, 6 days treatment, CellTiter-Glo cell viability; read-out: HCT-116 MTAP null IC50. The procedure, abridged: as §1

What is called IC50 is the midpoint of a concentration-inhibition curve. For the compound `CN(C(=O)c1ccc2nc(N)c3ncncc3c2c1)[C@@H]1COc2cc(C(F)(F)F)ccc21` [Example 221, 5-amino-N-methyl-N-((3S)-6-(trifluoromethyl)-2,3-dihydro-1-benzofuran-3-yl)pyrimido-[4,5-c]quinoline-9-carboxamide], the IC50 with HCT116 WT cells worked out at 4290 nM; in the assay with HCT116 MTAP null cells, 590 nM.

Consider `Cc1nccc2c(N)nc3ccc(C(=O)N(C)[C@@H]4COc5cc(C(F)(F)F)ccc54)cc3c12` [Example 222, 5-amino-N,1-dimethyl-N-((3S)-6-(trifluoromethyl)-2,3-dihydro-1-benzofuran-3-yl)benzo[c][2,6]-naphthyridine-9-carboxamide], for which the IC50 in the assay on HCT116 WT cells is 3910 nM; in the assay with HCT116 MTAP null cells, 280 nM.

For `CN(C(=O)c1cc2c(cn1)nc(N)c1ccncc12)[C@@H]1COc2cc(C(F)(F)F)ccc21` [Example 223, 5-amino-N-methyl-N-((3S)-6-(trifluoromethyl)-2,3-dihydro-1-benzofuran-3-yl)pyrido[4,3-c][1,7]naphthyridine-9-carboxamide], the 50% inhibitory concentration (IC50) in the assay with HCT116 WT cells was determined as 437 nM; with HCT116 MTAP null cells, 23 nM.

In the case of `CN(C(=O)c1cc2c(cn1)nc(N)c1ncncc12)[C@@H]1COc2cc(C(F)(F)F)ccc21` [Example 224, 5-amino-N-methyl-N-((3S)-6-(trifluoromethyl)-2,3-dihydro-1-benzofuran-3-yl)pyrimido-[4,5-c][1,7]naphthyridine-9-carboxamide], the IC50 with HCT116 WT cells was 3600 nM; with HCT116 MTAP null cells, 424 nM.

As to `Cc1noc2c1c(N)nc1cc(F)c(C(=O)N(C)[C@@H]3COc4cc(C(F)(F)F)ccc43)cc12` [Example 225, 4-amino-7-fluoro-N,3-dimeth-yl-N-((3S)-6-(trifluoromethyl)-2,3-dihydro-1-benzofuran-3-yl)[1,2]oxazolo[4,5-c]quin-oline-8-carboxamide], the IC50 amounted to 4940 nM in the assay on HCT116 WT cells and 403 nM in the assay on HCT116 MTAP null cells.

As to `CN(C(=O)c1ccc2nc(N)c3cnn(C)c3c2c1)[C@@H]1COc2cc(C(F)(F)F)ncc21` [Example 227, 4-amino-N,1-dimethyl-N-((3S)-6-(trifluoromethyl)-2,3-dihydrofuro[3,2-c]pyridin-3-yl)-1H-pyrazolo[4,3-c]-quinoline-8-carboxamide], the IC50 in the assay with HCT116 WT cells was found to be 1480 nM; in the assay with HCT116 MTAP null cells it was 19 nM.

As for `CCN(C(=O)c1ccc2nc(N)c3cnn(C)c3c2c1)[C@H]1COc2cc(C(F)(F)F)ccc21` [Example 229, 4-amino-N-ethyl-1-methyl-N-((3R)-6-(trifluoromethyl)-2,3-dihydro-1-benzofuran-3-yl)-1H-pyrazolo[4,3-c]quinoline-8-carboxamide], the 50% inhibitory concentration (IC50) in the assay on HCT116 WT cells is 7740 nM; in the assay on HCT116 MTAP null cells, 265 nM.

Consider `CN(C(=O)c1ccc2nc(N)c3cnn(C)c3c2c1)[C@@H]1COc2cc(OC(F)(F)F)ccc21` [Example 230, 4-amino-N,1-dimethyl-N-((3S)-6-(trifluoromethoxy)-2,3-dihydro-1-benzofuran-3-yl)-1H-pyrazolo[4,3-c]quinoline-8-carboxamide], for which the values for the IC50 in the assay on HCT116 WT cells and in the assay with HCT116 MTAP null cells were 530 nM and 7 nM, respectively.

Take `CN(C(=O)c1ccc2nc(N)c3cnn(C)c3c2c1)[C@@H]1COc2cc(C(F)(F)F)cc(Cl)c21` [Example 231, 4-amino-N-((3S)-4-chloro-6-(trifluoromethyl)-2,3-dihydro-1-benzofuran-3-yl)-N,1-dimethyl-1H-pyrazolo[4,3-c]-quinoline-8-carboxamide]: the concentration for half-maximal inhibition (IC50) came out at 2060 nM in the assay with HCT116 WT cells and 215 nM in the assay with HCT116 MTAP null cells.

Turning to `CN(C(=O)c1ccc2nc(N)c3cnn(C)c3c2c1)[C@H]1COc2cc(C(F)(F)F)cc(Cl)c21` [Example 232, 4-amino-N-((3R)-4-chloro-6-(trifluoromethyl)-2,3-dihydro-1-benzofuran-3-yl)-N,1-dimethyl-1H-pyrazolo[4,3-c]-quinoline-8-carboxamide], the IC50 in the assay with HCT116 WT cells is 2490 nM; with HCT116 MTAP null cells, 222 nM.

For `CN(C(=O)c1ccc2nc(N)c3cnn(C)c3c2c1)[C@@H]1COc2cc(Br)ccc21` [Example 234, 4-amino-N-((3S)-6-bromo-2,3-dihydro-1-benzofuran-3-yl)-N,1-dimethyl-1H-pyrazolo[4,3-c]quinoline-8-carboxamide], the IC50 in the assay with HCT116 WT cells worked out at 613 nM; with HCT116 MTAP null cells it was 8 nM.

Regarding `CN(C(=O)c1ccc2nc(N)c3cnn(C)c3c2c1)[C@@H]1COc2cc(Br)cnc21` [Example 235, 4-amino-N-((3S)-6-bromo-2,3-dihydrofuro[3,2-b]pyridin-3-yl)-N,1-dimethyl-1H-pyrazolo[4,3-c]quinoline-8-carboxamide], the half-maximal inhibitory concentration (IC50) in the assay with HCT116 WT cells was determined as 10000 nM; in the assay on HCT116 MTAP null cells, 219 nM.

As for `CN(C(=O)c1ccc2nc(N)c3cnn(C)c3c2c1)[C@H]1COc2cc(Br)cnc21` [Example 236, 4-amino-N-((3R)-6-bromo-2,3-dihydrofuro[3,2-b]pyridin-3-yl)-N,1-dimethyl-1H-pyrazolo[4,3-c]quinoline-8-carboxamide], the IC50 stood at 24200 nM in the assay with HCT116 WT cells and 786 nM in the assay with HCT116 MTAP null cells.

For the compound `CN(C(=O)c1cc2c(cn1)nc(N)c1cnn(C)c12)[C@@H]1COc2cc(C(F)(F)F)ccc21` [Example 237, 4-amino-N,1-dimethyl-N-((3S)-6-(trifluoromethyl)-2,3-dihydro-1-benzofuran-3-yl)-1H-pyr-azolo[4,3-c][1,7]naphthyridine-8-carboxamide], the values for the half-inhibitory concentration (IC50) in the assay on HCT116 WT cells and in the assay on HCT116 MTAP null cells were 192 nM and 12 nM, respectively.

On to `CN(C(=O)c1cc2c(cn1)nc(N)c1cnn(C)c12)[C@@H]1COc2cc(OC(F)(F)F)ccc21` [Example 239, 4-amino-N,1-dimethyl-N-((3S)-6-(trifluoromethoxy)-2,3-dihydro-1-benzofuran-3-yl)-1H-pyrazolo[4,3-c][1,7]-naphthyridine-8-carboxamide], for which the results for the IC50 in the assay with HCT116 WT cells and in the assay on HCT116 MTAP null cells were 168 nM and 10 nM, respectively.

Turning to `CN(C(=O)c1cc2c(cn1)nc(N)c1cnn(C)c12)[C@@H]1COc2cc(S(F)(F)(F)(F)F)ccc21` [Example 240, 4-amino-N,1-dimethyl-N-((3S)-6-(pentafluoro-lambda~6~-sulfanyl)-2,3-dihydro-1-benzofuran-3-yl)-1H-pyrazolo[4,3-c][1,7]naph-thyridine-8-carboxamide], the IC50 worked out at 250 nM in the assay on HCT116 WT cells and 13 nM with HCT116 MTAP null cells.

Take `CN(C(=O)c1cc2c(cn1)nc(N)c1cnn(C)c12)[C@@H]1COc2cc(-c3cnn(C(F)(F)F)c3)ccc21` [Example 241, 4-amino-N,1-dimethyl-N-((3S)-6-(1-(trifluoromethyl)-1H-pyrazol-4-yl)-2,3-dihydro-1-benzofuran-3-yl)-1H-pyr-azolo[4,3-c][1,7]naphthyridine-8-carboxamide]: the values for the concentration for half-maximal inhibition (IC50) in the assay with HCT116 WT cells and in the assay with HCT116 MTAP null cells were 388 nM and 9 nM, respectively.

Consider `CCN(C(=O)c1cc2c(cc1F)nc(N)c1cnn(C)c12)[C@@H]1COc2cc(C(F)(F)F)ccc21` [Example 243, 4-amino-N-ethyl-7-fluoro-1-methyl-N-((3S)-6-(trifluoro-methyl)-2,3-dihydro-1-benzo-furan-3-yl)-1H-pyrazolo[4,3-c]-quinoline-8-carboxamide], for which the figures for the IC50 in the assay on HCT116 WT cells and in the assay on HCT116 MTAP null cells were 82 nM and 9 nM, respectively.

In the case of `CCN(C(=O)c1cc2c(cc1F)nc(N)c1cnn(C)c12)[C@H]1COc2cc(C(F)(F)F)ccc21` [Example 244, 4-amino-N-ethyl-7-fluoro-1-methyl-N-((3R)-6-(trifluoro-methyl)-2,3-dihydro-1-benzo-furan-3-yl)-1H-pyrazolo[4,3-c]quinoline-8-carboxamide], the IC50 turned out to be 7440 nM with HCT116 WT cells and 182 nM in the assay on HCT116 MTAP null cells.

In the case of `CN(C(=O)c1cc2c(cc1F)nc(N)c1cnn(C)c12)[C@@H]1COc2cc(-c3cnn(C(F)(F)F)c3)ccc21` [Example 247, 4-amino-7-fluoro-N,1-dimethyl-N-((3S)-6-(1-(trifluoromethyl)-1H-pyrazol-4-yl)-2,3-dihydro-1-benzofuran-3-yl)-1H-pyrazolo[4,3-c]quinoline-8-carboxamide], the IC50 in the assay with HCT116 WT cells is 304 nM; in the assay on HCT116 MTAP null cells, 5 nM.

In the case of `CN(C(=O)c1cc2c(cc1Cl)nc(N)c1cnn(C)c12)[C@@H]1COc2cc(-c3cnn(C(F)(F)F)c3)ccc21` [Example 249, 4-amino-7-chloro-N,1-dimethyl-N-((3S)-6-(1-(trifluoromethyl)-1H-pyrazol-4-yl)-2,3-dihydro-1-benzo-furan-3-yl)-1H-pyrazolo[4,3-c]quinoline-8-carboxamide], the IC50 in the assay on HCT116 WT cells is 66 nM; in the assay on HCT116 MTAP null cells, 3 nM.

For `Cc1cc2nc(N)c3cnn(C)c3c2cc1C(=O)N(C)[C@@H]1COc2cc(C(F)(F)F)ccc21` [Example 250, 4-amino-N,1,7-trimethyl-N-((3S)-6-(trifluoromethyl)-2,3-dihydro-1-benzofuran-3-yl)-1H-pyrazolo[4,3-c]quinoline-8-carboxamide], the half-inhibitory concentration (IC50) in the assay with HCT116 WT cells came out at 46 nM; with HCT116 MTAP null cells, 2 nM.

Regarding `Cc1nc2nc(N)c3cnn(C)c3c2cc1C(=O)N(C)[C@@H]1COc2cc(C(F)(F)F)ccc21` [Example 251, 4-amino-N,1,7-trimethyl-N-((3S)-6-(trifluoromethyl)-2,3-dihydro-1-benzofuran-3-yl)-1H-pyrazolo[4,3-c][1,8]-naphthyridine-8-carboxamide], the half-inhibitory concentration (IC50) in the assay on HCT116 WT cells was determined as 217 nM; with HCT116 MTAP null cells, 7 nM.

`Cc1nc2nc(N)c3cnn(C)c3c2cc1C(=O)N(C)[C@@H]1COc2cc(Cl)c(Cl)cc21` [Example 252, 4-amino-N-((3S)-5,6-dichloro-2,3-dihydro-1-benzofuran-3-yl)-N,1,7-trimethyl-1H-pyrazolo[4,3-c][1,8]naphthyr-idine-8-carboxamide]: the IC50 with HCT116 WT cells worked out at 234 nM; with HCT116 MTAP null cells, 19 nM.

For the compound `CN(C(=O)c1cc2c(cc1C(F)(F)F)nc(N)c1cnn(C)c12)[C@@H]1COc2cc(C(F)(F)F)ccc21` [Example 253, 4-amino-N,1-dimethyl-7-(trifluoromethyl)-N-((3S)-6-(trifluoromethyl)-2,3-dihydro-1-benzofuran-3-yl)-1H-pyrazolo[4,3-c]quinoline-8-carboxamide], the results for the half-maximal inhibitory concentration (IC50) in the assay on HCT116 WT cells and in the assay with HCT116 MTAP null cells were 2100 nM and 35 nM, respectively.
